In brackets after ≈: the same amount, converted by molar mass.
Legend:
Assay in all cases: microbe, parasite or virus in culture
Mtb KZN494/MDR = type: cell-based, Mycobacterium tuberculosis; settings: Mycobacterium tuberculosis, KZN494/MDR, read-out: Mtb MIC KZN494/MDR
Mtb V2475/MDR = type: cell-based; settings: Mycobacterium tuberculosis, read-out: Mtb MIC V2475/MDR
Mtb R506/XDR = type: cell-based; settings: Mycobacterium tuberculosis, read-out: Mtb MIC R506/XDR
Mtb TF274/XDR = type: cell-based; settings: Mycobacterium tuberculosis, read-out: Mtb MIC TF274/XDR

Compound: Cc1ccc2nc(C)c(C(=O)NCCCC3CCCCC3)n2c1 [Compound 15, N-(3-cyclohexylpropyl)-2,6-dimethylimidazo[1,2-a]pyridine-3-carboxamide]
- MIC (Mtb KZN494/MDR): 0.05 µM (≈ 0.0157 µg/mL)
- MIC (Mtb V2475/MDR): 0.2 µM (≈ 0.0627 µg/mL)
- MIC (Mtb R506/XDR): 0.1 µM (≈ 0.0313 µg/mL)
- MIC (Mtb TF274/XDR): 0.2 µM (≈ 0.0627 µg/mL)

Compound: Cc1nc2ccc(Cl)cn2c1C(=O)NCCCC1CCCCC1 [Compound 16, 6-chloro-N-(3-cyclohexylpropyl)-2-methylimidazo[1,2-a]pyridine-3-carboxamide]
- MIC (Mtb KZN494/MDR): 0.09 µM (≈ 0.03 µg/mL)
- MIC (Mtb V2475/MDR): 0.37 µM (≈ 0.124 µg/mL)
- MIC (Mtb R506/XDR): 0.75 µM (≈ 0.25 µg/mL)
- MIC (Mtb TF274/XDR): 1.5 µM (≈ 0.501 µg/mL)

From article PMC8720286 (Chemical biology & drug design, 2020)
